Test results: patent US20240262848A1, “HETEROCYCLIC COMPOUNDS, COMPOSITIONS THEREOF, AND METHODS OF TREATMENT THEREWITH” (BeiGene, Ltd., priority 2022, published 2024)

Tests used:
[1] = system: pERK1/2(THR202/TYR204) level in AsPC-1 cell line; experiment: KRAS G12D pERK assay in AsPC-1 cells (HTRF); type: cell-based; settings: Homo sapiens, ASPC1, Table 5, 2 h compound treatment
Method: AsPC-1 cell line was used in this study. Cells were maintained in RPMI-1640 supplemented with 10% fetal bovine serum (Thermo Fisher), 50 units/ml, penicillin and streptomycin (Thermo Fisher) and kept at 37° C. in a humidified atmosphere of 5% CO2 in air. Cells were reinstated from frozen stocks that were laid down within 30 passages from the original cells purchased. 30000 cells per well were seeded into a 96-well plate and incubated overnight. Cells were treated with a 10-point dilution series. The final compound concentration is from 0 to 10 μM. After 2 h compound treatment, cells were lysed, and the pERK1/2(THR202/TYR204) level in the cell lysates was detected by HTRF kit (Cisbio). In brief, a total of 16 μL of cell lysate from each well of a 96-well plate was transferred to a 384-well white assay plate. Lysate from each well was incubated with 2 μL of Eu3+-cryptate (donor) labeled anti-phospho-ERK1/2 and 2 μL of D2 (acceptor) labeled anti-phospho-ERK1/2 antibodies (Cisbio) overnight in dark at room temperature. When the donor and acceptor are in close proximity, excitation of the donor with laser triggers a Fluorescence Resonance Energy Transfer (FRET) towards the acceptor, which in turn fluoresces at 655 nm wavelength. FRET signals were measured using a PHERAstar FSX reader (BMG Labtech). IC50 determination was performed by fitting the curve of percent inhibition versus the log of the inhibitor concentration using Dotmatics.

[2] = target: GST-tagged GDP-loaded KRAS G12D (amin acids 1-188) (Homo sapiens, UniProt P01116, G12D); experiment: KRAS G12D probe displacement assay (TR-FRET); type: binding; settings: Table 5; KRAS G12D 0.5 nM, biotinylated probe 2 4 nM
Sequence of GST-tagged GDP-loaded KRAS G12D (amin acids 1-188) (P01116 1-188 isoform P01116-2 G12D): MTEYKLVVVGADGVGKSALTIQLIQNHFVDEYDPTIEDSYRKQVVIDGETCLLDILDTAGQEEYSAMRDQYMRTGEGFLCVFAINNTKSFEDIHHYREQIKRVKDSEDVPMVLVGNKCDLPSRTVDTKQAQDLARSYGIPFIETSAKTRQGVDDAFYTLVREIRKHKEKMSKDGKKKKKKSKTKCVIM
Method: Plates are incubated at 24° C. for 1 hr.

[3] = target: GST-tagged GDP-loaded KRAS G12V (amino acids 1-169) (Homo sapiens, UniProt P01116, G12V); experiment: KRAS G12V probe displacement assay (TR-FRET); type: binding; settings: Table 4; KRAS G12V 2 nM, biotinylated probe 2 2.5 nM
Sequence of GST-tagged GDP-loaded KRAS G12V (amino acids 1-169) (P01116 1-169 isoform P01116-2 G12V): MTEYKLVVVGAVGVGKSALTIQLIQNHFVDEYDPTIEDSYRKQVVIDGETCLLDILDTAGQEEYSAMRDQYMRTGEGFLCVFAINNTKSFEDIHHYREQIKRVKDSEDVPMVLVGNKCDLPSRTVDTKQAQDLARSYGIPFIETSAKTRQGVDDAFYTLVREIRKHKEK
Method: Plates are incubated at 24 °C for 1 hr. […] After 1 hr incubation at 24° C.

[4] = system: pERK1/2(THR202/TYR204) level in SW620 cell line; experiment: KRAS G12V pERK assay in SW620 cells (HTRF); type: cell-based; settings: Homo sapiens, SW-620, Table 4, 2 hrs compound treatment
Method: SW620 cell line was used in this study. Cells were maintained in RPMI 1640 supplemented with 10% fetal bovine serum (Thermo Fisher), 50 units/mL penicillin and streptomycin (Thermo Fisher) and kept at 37° C. in a humidified atmosphere of 5% CO2 in air. Cells were reinstated from frozen stocks that were laid down within 30 passages from the original cells purchased. 40000 cells per well were seeded into a 96-well plate and incubated overnight. Cells were treated with a 10-point dilution series. The final compound concentration is from 0 to 10 μM. After 2 hrs compound treatment, cells were lysed, and the pERK1/2(THR202/TYR204) level in the cell lysates was detected by HTRF kit (Cisbio). In brief, a total of 16 μL of cell lysate from each well of a 96-well plate was transferred to a 384-well white assay plate. Lysate from each well was incubated with 2 μL of Eu3+-cryptate (donor) labeled anti-phospho-ERK1/2 and 2 μL of D)2 (acceptor) labeled anti-phospho-ERK1/2 antibodies (Cisbio) overnight in dark at room temperature. When donor and acceptor are in close proximity, excitation of the donor with laser triggers a Fluorescence Resonance Energy Transfer (FRET) towards the acceptor, which in turn fluoresces at 655 nm wavelength. FRET signals were measured using a PHERAstar FSX reader (BMG Labtech). IC50 determination was performed by fitting the curve of percent inhibition versus the log of the inhibitor concentration using Dotmatics.

Structure (SMILES) | IC50 [1] [nM] | IC50 [2] [nM] | IC50 [3] [nM] | IC50 [4] [nM]
CNCCN1c2nc(OC[C@@]34CCCN3C[C@H](F)C4)nc3c(F)c(-c4cc(N)cc(Cl)c4C(F)(F)F)nc(c23)OCCC1C (stereo partly drawn) [Example 20, 3-chloro-5-(4-fluoro-2-(((2R,7aS)-2-fluorotetrahydro-1H-pyrrolizin-7a(5H)-yl)methoxy)-10-methyl-11-(2-(methylamino)ethyl)-8,9,10,11-tetrahydro-7-oxa-1,3,6,11-tetraazacycloocta[de]naphthalen-5-yl)-4-(trifluoromethyl)aniline] | 1010 | 0.43 |  | 
CNCCN1CCCOc2nc(-c3cc(N)cc(Cl)c3C(F)(F)F)c(F)c3nc(OC[C@@]45CCCN4C[C@H](F)C5)nc1c23 [Example 17, 3-chloro-5-(4-fluoro-2-(((2R,7aS)-2-fluorotetrahydro-1H-pyrrolizin-7a(5H)-yl)methoxy)-11-(2-(methylamino)ethyl)-8,9,10,11-tetrahydro-7-oxa-1,3,6,11-tetraazacycloocta[de]naphthalen-5-yl)-4-(trifluoromethyl)aniline] |  | 9.6 |  | 
CN1c2nc(OC[C@@]34CCCN3C[C@H](F)C4)nc3c(F)c(-c4cc(N)cc(Cl)c4C(F)(F)F)nc(c23)OCC2CNCC21 (stereo partly drawn) [Example 27, 3-chloro-5-(4-fluoro-2-(((2R,7aS)-2-fluorotetrahydro-1H-pyrrolizin-7a(5H)-yl)methoxy)-12-methyl-8a, 9,10,11,11a, 12-hexahydro-8H-7-oxa-1,3,6,10,12-pentaazacyclopenta[5,6]cycloocta[1,2,3-de]naphthalen-5-yl)-4-(trifluoromethyl)aniline] | 836 | 0.95 |  | 
CNCC(C)N1CCCOc2nc(-c3cc(N)cc(Cl)c3C(F)(F)F)c(F)c3nc(OC[C@@]45CCCN4C[C@H](F)C5)nc1c23 (stereo partly drawn) [Example 39, 3-chloro-5-(4-fluoro-2-(((2R,7aS)-2-fluorotetrahydro-1H-pyrrolizin-7a(5H)-yl)methoxy)-11-(1-(methylamino)propan-2-yl)-8,9,10,11-tetrahydro-7-oxa-1,3,6,11-tetraazacycloocta[de]naphthalen-5-yl)-4-(trifluoromethyl)aniline] | 1780 | 3.9 |  | 
CNCC(C)N1c2nc(OC[C@@]34CCCN3C[C@H](F)C4)nc3c(F)c(-c4cc(N)cc(Cl)c4C(F)(F)F)nc(c23)OCC12CCC2 (stereo partly drawn) [Example 38, 3-chloro-5-(4′-fluoro-2′-(((2R,7aS)-2-fluorotetrahydro-1H-pyrrolizin-7a(5H)-yl)methoxy)-10′-(1-(methylamino)propan-2-yl)-8′H, 10′H-7′-oxa-1′,3′,6′,10′-tetraazaspiro[cyclobutane-1,9′-cyclohepta[de]naphthalen]-1′(10a′), 2′,3a′, 3 al′(6a′), 5′-pentaen-5′-yl)-4-(trifluoromethyl)aniline] | 102 | 0.38 |  | 
CN(C)CCN1c2nc(OC[C@@]34CCCN3C[C@H](F)C4)nc3c(F)c(-c4cc(N)cc(Cl)c4C(F)(F)F)nc(c23)OCCC12COC2 [Example 44, 3-chloro-5-(11-(2-(dimethylamino)ethyl)-4-fluoro-2-(((2R,7aS)-2-fluorotetrahydro-1H-pyrrolizin-7a(5H)-yl)methoxy)-8,9-dihydro-11H-7-oxa-1,3,6,11-tetraazaspiro[cycloocta[de]naphthalene-10,3′-oxetan]-1(11a), 2,3a, 4,6-pentaen-5-yl)-4-(trifluoromethyl)aniline] | 184 | 0.65 |  | 
Nc1cc(Cl)c(C(F)(F)F)c(-c2nc3c4c(nc(OC[C@@]56CCCN5C[C@H](F)C6)nc4c2F)N([C@@H]2CCNC2)CCCO3)c1 [Example 41, 3-chloro-5-(4-fluoro-2-(((2R,7aS)-2-fluorotetrahydro-1H-pyrrolizin-7a(5H)-yl)methoxy)-11-((R)-pyrrolidin-3-yl)-8,9,10,11-tetrahydro-7-oxa-1,3,6,11-tetraazacycloocta[de]naphthalen-5-yl)-4-(trifluoromethyl)aniline] |  | 34 |  | 
CN1CC2(COC2)COc2nc(-c3cc(N)cc(Cl)c3C(F)(F)F)c(F)c3nc(OC[C@@]45CCCN4C[C@H](F)C5)nc1c23 [Example 11, 3-chloro-5-(4-fluoro-2-(((2R,7aS)-2-fluorotetrahydro-1H-pyrrolizin-7a(5H)-yl)methoxy)-11-methyl-10,11-dihydro-8H-7-oxa-1,3,6,11-tetraazaspiro[cycloocta[de]naphthalene-9,3′-oxetan]-1(11a), 2,3a, 3 al(6a), 5-pentaen-5-yl)-4-(trifluoromethyl)aniline] |  |  | 16 | 624
CN1c2nc(OC[C@@]34CCCN3C[C@H](F)C4)nc3c(F)c(-c4cc(N)cc(Cl)c4C(F)(F)F)nc(c23)OCCC12CCC2 [Example 32, 3-chloro-5-(4′-fluoro-2′-(((2R,7aS)-2-fluorotetrahydro-1H-pyrrolizin-7a(5H)-yl)methoxy)-11′-methyl-8′,9′-dihydro-11′H-7′-oxa-1′,3′,6′,11′-tetraazaspiro[cyclobutane-1,10′-cycloocta[de]naphthalen]-1′(11a′), 2′,3a′, 3 al′(6a′), 5′-pentaen-5′-yl)-4-(trifluoromethyl)aniline] |  |  | 3.4 | 133
Cc1cc(N)cc(-c2nc3c4c(nc(OC[C@@]56CCCN5C[C@H](F)C6)nc4c2F)N(C)CCO3)c1C(F)(F)F [Example 3, 3-(4-fluoro-2-(((2R,7aS)-2-fluorotetrahydro-1H-pyrrolizin-7a(5H)-yl)methoxy)-10-methyl-9,10-dihydro-8H-7-oxa-1,3,6,10-tetraazacyclohepta[de]naphthalen-5-yl)-5-methyl-4-(trifluoromethyl)aniline] |  |  | 15 | 402
CN1CCCOc2nc(-c3cc(N)cc(Cl)c3C(F)(F)F)c(F)c3nc(OC[C@@]45CCCN4C[C@H](F)C5)nc1c23 [Example 9, 3-chloro-5-(4-fluoro-2-(((2R,7aS)-2-fluorotetrahydro-1H-pyrrolizin-7a(5H)-yl)methoxy)-11-methyl-8,9,10,11-tetrahydro-7-oxa-1,3,6,11-tetraazacycloocta[de]naphthalen-5-yl)-4-(trifluoromethyl)aniline] |  |  | 5.2 | 249
CN1c2nc(OC[C@@]34CCCN3C[C@H](F)C4)nc3c(F)c(-c4cc(N)cc(Cl)c4C(F)(F)F)nc(c23)OC[C@H]2COC[C@@H]21 (single isomer, unassigned) [Example 68 Isomer 1] |  |  | 1.8 | 51
CN1c2nc(OC[C@@]34CCCN3C[C@H](F)C4)nc3c(F)c(-c4cc(N)cc(Cl)c4C(F)(F)F)nc(c23)OCC12CCC2 [Example 24, 3-chloro-5-(4′-fluoro-2′-(((2R,7aS)-2-fluorotetrahydro-1H-pyrrolizin-7a(5H)-yl)methoxy)-10′-methyl-8′H, 10′H-7′-oxa-1′,3′,6′,10′-tetraazaspiro[cyclobutane-1,9′-cyclohepta[de]naphthalen]-1′(10a′), 2′,3a′, 3 al′(6a′), 5′-pentaen-5′-yl)-4-(trifluoromethyl)aniline] |  |  | 2.6 | 95
CN1c2nc(OC[C@@]34CCCN3C[C@H](F)C4)nc3c(F)c(-c4cc(N)cc(Cl)c4C(F)(F)F)nc(c23)OCCC12CC(O)C2 (stereo partly drawn) [Example 33, 5′-(5-amino-3-chloro-2-(trifluoromethyl)phenyl)-4′-fluoro-2′-(((2R,7aS)-2-fluorotetrahydro-1H-pyrrolizin-7a(5H)-yl)methoxy)-11′-methyl-8′,9′-dihydro-11′H-7′-oxa-1′,3′,6′,11′-tetraazaspiro[cyclobutane-1,10′-cycloocta[de]naphthalen]-1′(11a′), 2′0.3a′, 3 al′(6a′), 5′-pentaen-3-ol] |  |  | 0.39 | 17
